Experimental data from ChEMBL document CHEMBL1126869, “Conformational analysis of a highly potent dicyclic gonadotropin-releasing hormone antagonist by nuclear magnetic resonance and molecular dynamics” (1993).
Bridge positions count the residues as written; N and C are the ends. Square brackets hold non-standard residues; d marks the D form. Peptide text beside a SMILES is read from it. dPhe(4-Cl) = N[C@H](Cc1ccc(Cl)cc1)C(=O)O; d2Nal = N[C@H](Cc1ccc2ccccc2c1)C(=O)O; Dap = NC[C@H](N)C(=O)O

Test: Biological potency in the anti-ovulatory assay in rat (dosage rats ovulating/total rats)
Type: functional

Row | Structure (SMILES) | Dosage
1 | CC(=O)N[C@H](Cc1ccc2ccccc2c1)C(=O)N[C@H](Cc1ccc(Cl)cc1)C(=O)N[C@H](Cc1c[nH]c2ccccc12)C(=O)N[C@H]1CC(=O)NC[C@@H](C(N)=O)NC(=O)[C@@H]2CCCN2C(=O)[C@@H]2CCCCNC(=O)CC[C@H](NC1=O)C(=O)N[C@H](CCCN=C(N)N)C(=O)N[C@@H](CC(C)C)C(=O)N2 (Ac-[d2Nal][dPhe(4-Cl)][dW]DE[dR]LKP[Dap]-NH2; lactam 4-10, 5-8) | 5 µg
2 | CC(=O)N1CCC[C@H]1C(=O)N[C@H](Cc1ccc(F)cc1)C(=O)N[C@H](Cc1c[nH]c2ccccc12)C(=O)N[C@H]1CC(=O)NC[C@@H](C(N)=O)NC(=O)[C@@H]2CCCN2C(=O)[C@H](CCCN=C(N)N)NC(=O)[C@H](CC(C)C)NC(=O)[C@@H](Cc2ccc3ccccc3c2)NC(=O)[C@H](Cc2ccc(O)cc2)NC1=O | 10 µg
3 | CC(C)C[C@@H]1C(=O)N[C@@H](CCCN=C(N)N)C(=O)N2CCC[C@@H]2C(=O)NCCC(=O)N2CCC[C@@H]2C(=O)N[C@@H](Cc2ccc(Cl)cc2)C(=O)N[C@H](Cc2c[nH]c3ccccc23)C(=O)N[C@@H](CO)C(=O)N[C@H](Cc2ccc(O)cc2)C(=O)N[C@@H](Cc2c[nH]c3ccccc23)C(=O)N1C | 1000 µg
